In patent publication US5696276A, “Process for preparing 5,8-dihydroxynaphthoquinone derivatives, novel 5,8-dihydroxynaphthoquinone derivatives and their use as anticancer agent” (Kuhnil Pharmaceutical Co., Ltd., priority 1993, dated 1997):
≈ marks a conversion by molar mass, not a printed value.

Legend:
L1210 cells [1] = assay: Cytotoxic activity against L1210 cells; assay type: cell-based; conditions: Mus musculus; L1210 cells, 48 hours, 37° C.; read-out: ED50, cytotoxic activity against L1210
In short: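 Log-phase L1210 cells (5×10^4 cells/ml) in Fisher medium exposed 48 h at 37 °C in CO2 to three dilutions of sample dissolved in ethanol or DMSO. Cells counted by haemacytometer; growth relative to control; ED50 (μg/ml) from linear regression of growth % on log concentration.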

HL-60 cells = assay: Cytotoxic activity against HL-60 cells; assay type: cell-based; conditions: Homo sapiens; HL-60 cells, 48 hours, 37° C.; read-out: ED50, cytotoxic activity against HL-60
Experimental: As in the test for the cytotoxic activity against L1210 cells, the test samples were dissoved in ethanol or dimethylsulfoxide in a certain concentration. 0.1 ml of the sample solution was mixed with 0.9 ml of a fresh medium to prepare the dilutions. To each two test tubes having a screw cap were added 100, 50, 25 μl, respectively, of the sample dilutions by means of a micropipet. To each test tube for the test group and the control group (2√n: n=number of the samples) was added 5 ml of the dilutions of HL-60 cells and K-562 cells which were cultured and activated before 24 hours from the beginning of experiment and then diluted in a concentration of 1×10^5 cells/mi. All test tubes were cultured for 48 hours in a CO2 incubator at 37° C. and then the number of cells was counted using a haemacytometer.
The ED50 value is defined as a concentration (μg/ml) of the sample which inhibits the growth of cancer cells by 50% of the control group and determined according to a method described in NIC's mannual (NIC=National Cancer Institue, U.S.A.). The growth rate Y(%) of cells in the presence of the test sample in each concentration was calculated according to the followign equation: […]
In the above equation, T means the average cell number per ml in the test group after incubation for 48 hours in the presence of the test samples in each concentration, C means the average cell number per ml in the control group after incubation for 48 hours, and Co means the average cell number per ml in the control group at the beginning of incubation. The Y(%) value at each concentration and log10 value of each concentration were obtained and the regression curve was constructed according to the following equation from those obtained values. In this case, when all the Y(%) value obtained at each concentration is greater than 55% or lower than 45%, the experiment was repeatedly conducted.
To construct the regression curve Y=A+BX the values A and B were obtained using the following equation. [formula]
In the above, the value N is the number of selected points which is greater than 2 and lower than, or identical with, the number of cencentration of the test sample, Xi is log(concentration) i, and Yi is the growth ratio at (concentration)i. The value of ED50 was obtained for those obtained slope and intercept.

A549 cancer cells = assay: Cytotoxic activity against A549 cancer cells (sulforhodamin B method); assay type: cell-based; conditions: Homo sapiens; A549 cells, SRB method, 48 hours; read-out: ED50, cytotoxic activity against A549
In short: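 Cells seeded at 8×10^4 per well, attached 24 h, then exposed 48 h to six log-spaced concentrations in triplicate. TCA-fixed, SRB-stained, OD read at 520 nm; growth inhibition computed relative to time-zero and untreated counts, IC50 from regression.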

S-180 sarcoma cells = assay: Animal experiment using Sarcoma S-180 cells (survival of mouse); assay type: in vivo, male ICR mouse; conditions: for responders at 10 µmol/kg / response vs control in vivo at 10 µmol/kg: daily dose 10 μmole (mg/kg/day given per compound)
In short: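 Male ICR mice (20 to 25 g) received intraperitoneal transplants of 0.1 ml S-180 cell suspension (10^7 cells/ml), prepared from ascites by washing in cold physiological saline. After 24 hours, groups of 8 to 9 mice received 7 to 8 ip injections of sample in dimethylsulfoxide diluted with saline. Controls got 2% dimethylsulfoxide-saline. Survival (T/C, %) was scored against control death.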

L1210 cells [2] = conditions: Kor. J. Pharm. Soc., 34, 262-266 (1990); cited from earlier work
S-180 sarcoma = conditions: Kor. J. Pharm. Soc., 34, 262-266 (1990); cited from earlier work
K-562 cells = assay: Cytotoxic activity against K-562 cells; assay type: cell-based; conditions: Homo sapiens, K562, 48 h, read-out: ED50, cytotoxic activity against K562
In short: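 HL-60 and K-562 cells (1×10^5 cells/ml) incubated 48 h at 37° C with sample dilutions from ethanol or DMSO stocks; cells counted by haemacytometer. ED50 (μg/ml) is the concentration giving 50% growth inhibition versus control, taken from linear regression of growth rate against log concentration.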

S-180 ascitic cancer = conditions: mouse suffering from S-180 ascitic cancer; Chem. Pharm. Bull. 25, 2392-2395 (1977); cited from earlier work
L1210 cancer = conditions: Chem. Pharm. Bull. 25, 2392-2395 (1977); cited from earlier work
[3] = ip, 1200 h, S-180 ICR mouse, intraperitoneal, 7 to 8 injections, read-out: Number of mouse survived for 50 days (converted)
[4] = ip, S-180 ICR mouse, intraperitoneal, 7 to 8 injections, read-out: T/C

Row | Structure (SMILES) | IC50 (L1210 cells [1]) [µg/mL] | IC50 (HL-60 cells) [µg/mL] | IC50 (A549 cancer cells) [µg/mL] | responders at 10 µmol/kg (S-180 sarcoma cells; [3]) [%] | response vs control in vivo at 10 µmol/kg (S-180 sarcoma cells; [4]) [%] | further results
1 | CC(=O)OC(CC=C(C)C)C1=CC(=O)c2c(O)ccc(O)c2C1=O (stereo not shown) [2-(1-acetyloxy-4-methyl-3-pentenyl)-5,8-dihydroxy-1,4-naphthoquinone] | < 0.01 | 0.06 (≈ 0.182 µM) | 1 (≈ 3.03 µM) | – | – | responders at 5 µmol/kg (S-180 sarcoma cells; Mus musculus, S-180, ip, 1200 h, read-out: Number of mouse survived for 50 days): 0%; response vs control in vivo at 5 µmol/kg (S-180 sarcoma cells; ip, S-180 ICR mouse, intraperitoneal, daily dose 5 μmole (mg/kg/day given per compound), 7 to 8 injections, read-out: T/C): 160%; ED50 value against L1210 cells (L1210 cells [2]): 0.01 µg/mL (≈ 0.0303 µM); LSI in mouse suffering from S-180 sarcoma (S-180 sarcoma): 85%
2 | CCC/C=C/C(=O)OC(CC=C(C)C)C1=CC(=O)c2c(O)ccc(O)c2C1=O (stereo not drawn) [2-[1-trans-(2-hexenoyl)oxy-4-methyl-3-pentenyl]-5,8-dihydroxy-1,4-naphthoquinone] | 0.5 (≈ 1.3 µM) | 1 (≈ 2.6 µM) | 1.6 (≈ 4.16 µM) | 12.5 | 160 | –
3 | CC/C=C/CC(=O)OC(CC=C(C)C)C1=CC(=O)c2c(O)ccc(O)c2C1=O (stereo not drawn) [2-[1-trans-(3-hexenoyl)oxy-4-methyl-3-pentenyl]-5,8-dihydroxy-1,4-naphthoquinone] | 0.3 (≈ 0.78 µM) | 0.9 (≈ 2.34 µM) | 3.3 (≈ 8.58 µM) | 25 | 200 | –
4 | CC(C)=CCC(OC(=O)/C=C(C)/C=C/C=C(C)/C=C/C1=C(C)CCCC1(C)C)C1=CC(=O)c2c(O)ccc(O)c2C1=O (stereo not drawn) [2-[1-trans-retinoyloxy)-4-methyl-3-pentenyl]-5,8-dihydroxy-1,4-naphthoquinone] | 3.1 (≈ 5.43 µM) | 4.3 (≈ 7.53 µM) | > 20 | – | – | responders at 15 µmol/kg (S-180 sarcoma cells; ip, 1200 h, S-180 ICR mouse, intraperitoneal, daily dose 15 μmole (mg/kg/day given per compound), 7 to 8 injections, read-out: Number of mouse survived for 50 days (converted)): 0%; response vs control in vivo at 15 µmol/kg (S-180 sarcoma cells; ip, S-180 ICR mouse, intraperitoneal, daily dose 15 μmole (mg/kg/day given per compound), 7 to 8 injections, read-out: T/C): 107%
5 | O=c1[nH]cc(F)c(=O)[nH]1 [5-Fluorouracil, reference compound] | 0.02 (≈ 0.154 µM) | 0.2 (≈ 1.54 µM) | 3.7 (≈ 28.4 µM) | – | – | IC50 (K-562 cells): 1 µg/mL (≈ 7.69 µM)
6 | CC(C)=CC[C@@H](O)C1=CC(=O)c2c(O)ccc(O)c2C1=O [shikonin] | – | – | – | – | – | increase in life span (LSI) (S-180 ascitic cancer): 92%; effect in mouse suffering from L1210 cancer (L1210 cancer): does not show a significant effect
